Values belong to the molecule of their own block, whether it stands above or below them.
Tests used:
[1] = Chemiluminescence upon reaction with H2O2 in PBS; format: physicochemical; conditions: compound 100 μM, H2O2 1 mM, PBS (pH 7.4) (10% DMSO)
Method: (§1) All reactions were carried out at room temperature unless stated otherwise. Chemicals and solvents were either A.R. grade or purified by standard techniques. Thin layer chromatography (TLC): silica gel plates Merck 60 F254: compounds were visualized by irradiation with UV light. Column chromatography (FC): silica gel Merck 60 (particle size 0.040-0.063 mm), eluent given in parentheses. Reverse-phase high pressure liquid chromatography (RP-HPLC): C18 5u, 250×4.6 mm, eluent given in parentheses. Preparative RP-HPLC: C18 5u, 250×21 mm, eluent given in parentheses. Fluorescence and chemiluminescence were recorded on Molecular Devices Spectramax i3x.
The respective chemiluminescent kinetic profile is shown in FIG. 1 and the total light emission with [1 mM] or without the presence of H2O2 is shown in FIG. 2.
The chemiluminescent kinetic profile is shown in FIG. 5 and the total light emission with and without the presence of H2O2 is shown in FIG. 6.

[2] = Chemiluminescent emission spectrum in PBS; format: physicochemical; conditions: compound 100 μM, PBS (pH 7.4) (10% DMSO)
Method: as §1

- emission maximum ([1]; 37° C.): 660 nm
SMILES: COC1(c2ccc(/C=C/c3cc[n+](CCCCCC(=O)O)cc3)c(OCc3ccc(B4OC(C)(C)C(C)(C)O4)cc3)c2Cl)OOC12C1CC3CC(C1)CC2C3 (stereo not drawn) [Ia1]

- emission maximum ([1]; 26° C.): 650 nm
SMILES: COC1(c2ccc(/C=C/c3cccc[n+]3CCCCCC(=O)O)c(OCc3ccc(B4OC(C)(C)C(C)(C)O4)cc3)c2Cl)OOC12C1CC3CC(C1)CC2C3 (stereo not drawn) [Ia3]

- intensity of emission [2]: visible by the naked eye
SMILES: COC1(c2ccc(/C=C/c3cc[n+]([O-])cc3)c(O)c2Cl)OOC12C1CC3CC(C1)CC2C3 (stereo not drawn) [Ia2]

Source: US20210214607A1, “LONG WAVELENGTH EMITTING CHEMILUMINESCENT PROBES” (NEMIS Technologies AG, priority 2018, published 2021)
